Tests used:
Test in all cases: normalised response (% of control), CellTiter-Glo; higher = more viable cells (100 = DMSO, 0 = benzethonium chloride kill control)
Details in all cases: incubation time: 72 h
CAL-120 = test system: CAL-120
In short: (§1)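 Breast cancer cell lines in 20 µl suspension were added to 384-well plates containing compound at 5 concentrations, spaced in 10-fold steps across a 10,000-fold range chosen for each compound, and incubated for 72 h. CellTox Green fluorescence was read at 485/520 nm, followed by CellTiter-Glo luminescence after 10 min at room temperature. Signals on each plate were normalised so that 0.1 % DMSO equals 100 and a positive kill control equals 0. Every value in the table is the normalised signal at one concentration of the series.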

MDA-MB-468 = test system: MDA-MB-468
In short: as §1

CAL-51 = test system: CAL-51
In short: as §1

HDQ-P1 = test system: HDQ-P1
In short: as §1

Hs578T = test system: Hs578T
In short: as §1

HCC1599 = test system: HCC1599
In short: as §1

BT-549 = test system: BT-549
In short: as §1

CAL-85-1 = test system: CAL-85-1
In short: as §1

BT-474 = test system: BT-474
In short: as §1

MFM-223 = test system: MFM-223
In short: as §1

MDA-MB-453 = test system: MDA-MB-453
In short: as §1

MDA-MB-436 = test system: MDA-MB-436
In short: as §1

DU-4475 = test system: DU-4475
In short: as §1

MDA-MB-231 = test system: MDA-MB-231
In short: as §1

CAL-148 = test system: CAL-148
In short: as §1

SK-BR-3 = test system: SK-BR-3
In short: as §1

HCC1937 = test system: HCC1937
In short: as §1

HCC1143 = test system: HCC1143
In short: as §1

MCF-10A = test system: MCF-10A
In short: as §1

Row | Structure (SMILES) | normalised response (CAL-120) [%] | normalised response (MDA-MB-468) [%] | normalised response (CAL-51) [%] | normalised response (HDQ-P1) [%] | normalised response (Hs578T) [%] | normalised response (HCC1599) [%] | normalised response (BT-549) [%] | normalised response (CAL-85-1) [%] | normalised response (BT-474) [%] | normalised response (MFM-223) [%] | normalised response (MDA-MB-453) [%] | normalised response (MDA-MB-436) [%] | normalised response (DU-4475) [%] | normalised response (MDA-MB-231) [%] | normalised response (CAL-148) [%] | normalised response (SK-BR-3) [%] | normalised response (HCC1937) [%] | normalised response (HCC1143) [%] | normalised response (MCF-10A) [%]
1 | CCNC(=O)c1noc(-c2cc(C(C)C)c(O)cc2O)c1-c1ccc(CN2CCOCC2)cc1 [NVP-AUY922] (1 nM) | 106 | 107 | 106 | 104 | 101 | 108 | 97.2 | 105 | 114 | 104 | 113 | 104 | 105 | 103 | 104 | 106 | 102 | 104 | 106
2 | C=CCn1c(=O)c2cnc(Nc3ccc(N4CCN(C)CC4)cc3)nc2n1-c1cccc(C(C)(C)O)n1 [MK1775] (10 nM) | 93.1 | 90.4 | 121 | 94.4 | 101 | 107 | 98.9 | 93.2 | 87.5 | 88.8 | 81 | 88.6 | 93.2 | 90.5 | 79.3 | 76.1 | 94.5 | 92.4 | 83
3 | CCn1c(C(=O)N(C2CC2)C2CC2)cc2c3c(ncn3C)c(Nc3cc(C)n(C)n3)nc21 (1 nM) | 94.4 | 100 | 135 | 99.6 | 98 | 96.7 | 103 | 105 | 92.6 | 102 | 89.3 | 97.9 | 99.7 | 106 | 97.4 | 102 | 105 | 100 | 102
4 | CN(C)C(=N)NC(=N)N [Metformin] (10 nM) | 103 | 89.4 | 86.8 | 97.7 | 93.2 | 93.1 | 98.3 | 99.6 | 92.3 | 88.1 | 80.5 | 91.7 | 87.8 | 96.5 | 97.7 | 76.9 | 90.6 | 98 | 77
5 | Cn1cc(C2=C(c3cn(C4CCN(Cc5ccccn5)CC4)c4ccccc34)C(=O)NC2=O)c2ccccc21 [Enzastaurin] (10 nM) | 92.7 | 96.5 | 92.2 | 99.4 | 100 | 96.3 | 92.4 | 107 | 99.6 | 104 | 107 | 107 | 103 | 104 | 96.2 | 104 | 95.5 | 103 | 106
6 | COc1cc(Nc2c(C#N)cnc3cc(OCCCN4CCN(C)CC4)c(OC)cc23)c(Cl)cc1Cl [Bosutinib] (10 nM) | 100 | 107 | 92.3 | 97.3 | 104 | 91.1 | 98.4 | 94.6 | 100 | 106 | 104 | 97.6 | 97.7 | 96.1 | 105 | 102 | 95.5 | 100 | 96.9
7 | CC[C@H](CO)Nc1nc(NCc2ccccc2)c2ncn(C(C)C)c2n1 [Seliciclib] (1 nM) | 96.7 | 98 | 88.7 | 102 | 100 | 92.9 | 97.2 | 100 | 100 | 104 | 104 | 104 | 106 | 107 | 106 | 107 | 97.3 | 101 | 97.1
8 | CNC(=O)c1ccccc1Sc1ccc2c(/C=C/c3ccccn3)n[nH]c2c1 [Axitinib] (10 nM) | 96.7 | 96.8 | 121 | 103 | 97.7 | 111 | 107 | 102 | 107 | 105 | 107 | 103 | 102 | 107 | 101 | 106 | 100 | 102 | 103
9 | CC1(COc2ccc3c(c2)ncn3-c2ccc3cccc(N4CCC(N)CC4)c3n2)COC1 [Crenolanib] (1 nM) | 98.5 | 102 | 123 | 102 | 103 | 105 | 110 | 96.6 | 102 | 99.5 | 90.9 | 97.9 | 108 | 98.7 | 102 | 106 | 103 | 98.5 | 116
10 | CN(Cc1cnc2nc(N)nc(N)c2n1)c1ccc(C(=O)N[C@@H](CCC(=O)O)C(=O)O)cc1 [Methotrexate] (5 nM) | 99.5 | 108 | 103 | 102 | 109 | 88.1 | 117 | 101 | 100 | 108 | 116 | 97.6 | 105 | 109 | 105 | 118 | 107 | 107 | 107
11 | C=CCN(/C=C1/C(=O)O[C@H](COC)[C@@]2(C)C1=C(O)C(=O)C1=C2[C@H](OC(C)=O)C[C@]2(C)C(=O)CC[C@@H]12)CC=C [Sonolisib] (10 nM) | 101 | 101 | 108 | 94.4 | 97.9 | 95.1 | 102 | 102 | 112 | 109 | 104 | 111 | 106 | 102 | 107 | 123 | 106 | 107 | 105
12 | CC(O)(CS(=O)(=O)c1ccc(F)cc1)C(=O)Nc1ccc(C#N)c(C(F)(F)F)c1 (stereo not given) [Bicalutamide] (10 nM) | 100 | 102 | 105 | 105 | 99 | 106 | 99.5 | 106 | 107 | 111 | 100 | 111 | 104 | 105 | 113 | 130 | 98.6 | 105 | 109
13 | CC(C)(C)c1nc(-c2cccc(NS(=O)(=O)c3c(F)cccc3F)c2F)c(-c2ccnc(N)n2)s1 [Dabrafenib] (0.25 nM) | 98.9 | 99.7 | 109 | 104 | 101 | 98.8 | 109 | 103 | 98.9 | 104 | 104 | 101 | 101 | 104 | 116 | 108 | 106 | 108 | 109
14 | Cc1nc(C(=O)NCC(=O)O)c(O)c2ccc(Oc3ccccc3)cc12 [FG-4592] (10 nM) | 100 | 97.3 | 90.5 | 103 | 103 | 104 | 99.1 | 101 | 104 | 107 | 109 | 95 | 101 | 101 | 117 | 109 | 105 | 105 | 111
15 | Cc1nc(C(=O)NCC(=O)O)c(O)c2ccc(Oc3ccccc3)cc12 [FG-4592] (1 nM) | 98.5 | 98.4 | 89.8 | 106 | 103 | 100 | 104 | 98.9 | 94.7 | 102 | 109 | 96.2 | 103 | 101 | 102 | 111 | 102 | 108 | 111
16 | CC(C)(C)NC(=O)[C@H]1CC[C@H]2[C@@H]3CC[C@H]4NC(=O)C=C[C@]4(C)[C@H]3CC[C@]12C [Finasteride] (10 nM) | 99.5 | 106 | 80.6 | 97.3 | 101 | 114 | 96.4 | 98.7 | 98.3 | 97.8 | 113 | 95.9 | 102 | 104 | 101 | 121 | 103 | 108 | 104
17 | C=CCN(/C=C1/C(=O)O[C@H](COC)[C@@]2(C)C1=C(O)C(=O)C1=C2[C@H](OC(C)=O)C[C@]2(C)C(=O)CC[C@@H]12)CC=C [Sonolisib] (1 nM) | 107 | 104 | 75.2 | 95.6 | 105 | 116 | 103 | 103 | 107 | 107 | 119 | 102 | 103 | 109 | 110 | 109 | 101 | 102 | 108
18 | CO[C@@H]1[C@H](N(C)C(=O)c2ccccc2)C[C@H]2O[C@]1(C)n1c3ccccc3c3c4c(c5c6ccccc6n2c5c31)C(=O)NC4 [Midostaurin] (10 nM) | 96 | 106 | 97.2 | 97.5 | 99.4 | 123 | 107 | 100 | 98.6 | 96.7 | 96.7 | 104 | 97.5 | 102 | 105 | 96.1 | 95.3 | 98.9 | 96.3
19 | O=[N+]([O-])c1ccc2c(c1)S(=O)(=O)C=C2 [Stattic] (5 nM) | 95.3 | 99.8 | 102 | 98.8 | 104 | 114 | 105 | 95.5 | 98.6 | 101 | 106 | 99.5 | 106 | 96.2 | 103 | 99.3 | 94.6 | 101 | 111
20 | CC(C)C[C@H](NC(=O)[C@@H](COC(C)(C)C)NC(=O)[C@H](Cc1ccc(O)cc1)NC(=O)[C@H](CO)NC(=O)[C@H](Cc1c[nH]c2ccccc12)NC(=O)[C@H](Cc1cnc[nH]1)NC(=O)[C@@H]1CCC(=O)N1)C(=O)N[C@@H](CCCNC(=N)N)C(=O)N1CCC[C@H]1C(=O)NNC(N)=O [Goserelin] (10 nM) | 101 | 96.1 | 92.5 | 101 | 99.5 | 98.5 | 99.4 | 93.8 | 98 | 94.2 | 102 | 98 | 100 | 94 | 94.6 | 119 | 93.7 | 99.2 | 102
